Reference: US11512079B2, “Heterocycle substituted pyridine derivative antifungal agents” (Amplyx Pharmaceuticals, Inc., priority 2017, dated 2022)
Converted amounts (≈) assume the structure as drawn.

Experiments:
[1] = system: C. neoformans strain H99; experiment: Murine model of cryptococcal meningitis, dosing in the presence of the pan-CYP inhibitor ABT, CD-1 mice; assay type: in vivo, Cryptococcus neoformans; details: for reduction of CFU in brain vs untreated control / reduction of CFU in lung vs untreated control: preliminary experiment, 100 mg/kg ABT PO 2 h prior to each dose, n=5
Experimental: Efficacy of exemplary compounds in a murine model of cryptococcal meningitis when dosed in the presence of the pan-CYP inhibitor ABT. […] 100 mg/kg ABT was administered orally to male CD-1 mice 2 h prior to compound administration. Mice were injected with 6.9×10^4 CFU C. neoformans strain H99 per mouse via lateral tail vein at T=0 h. Treatment with each prodrug was initiated about 1 h post-infection by IP administration and continued daily for 7 days with 100 mg/kg ABT administered orally 2 h prior to each dose of compound. The mean log10 CFU/g brain and lung counts in untreated control mice were 7.83±0.09 and 4.67±0.88, respectively (FIG. 1).
[…] A 60 mg/kg dose QD without ABT was also evaluated as a control.
Cryptococcal meningitis model. C. neoformans strain H99 was grown in YPD broth at 30° C. on a shaker (220 rpm) for 24 h, centrifuged (1980 ref) and washed twice in PBS, resuspended in PBS, and quantified by hemacytometric count. CD-1 male mice were infected with ˜5×10^4 CFU per mouse via lateral tail vein injection of 100 μL. Mice were weighed, and treatment was within 1 h after infection. Treatments were administered daily for seven days. Mice were weighed daily and observed for acute and chronic adverse symptoms. Mice were sacrificed on day 8, and brain and left lung were homogenized and cultured for quantitative determination of tissue burden (CFU per gram of tissue). Tissues were homogenized for 25 seconds in […] phosphate buffered saline using two 6.5 mm steel beads and a Mini-Beadbeater 16 (Biospec Products, Inc., Bartlesville, Okla.), and serially diluted in 10-fold steps. Aliquots ([…]) of homogenate were plated and incubated for 3 to 7 days at 37° C. Fungal burden data were log10 transformed and evaluated using Kruskal-Wallis tests with Dunn's Multiple Comparison Test for Post-hoc analysis (Prism 5; GraphPad Software, Inc., San Diego, Calif.). A P value of ≤0.05 is considered statistically significant.

[2] = system: C. gattii isolates; experiment: Activity vs susceptible and FLC non-susceptible/resistant strains, broth microdilution; assay type: cell-based, Cryptococcus gattii
Source text: (§1) The activity of Gwt1 inhibitors against susceptible and FLC non-susceptible/resistant strains.
(§2) Isolates tested. C. neoformans strains H99, DUMC 118.00, DUMC 158.03 and C. gattii strains R272, and RSA-MW-3515 were obtained from Duke University. C. albicans 90028, A. fumigatus MYA3626, C. neoformans 14116, C. neoformans 76484 and the pathogenic Cryptococcus reference strains panel (ATCC MP-11) were obtained from American Type Culture Collection (ATCC, Manassas, Va., USA). The MP-11 panel consists of strains representing eight molecular types and three subtypes of C. neoformans and C. gattii.
(§3) Antifungal susceptibility testing. To establish antimicrobial activity, broth microdilution susceptibility testing was performed according to Clinical and Laboratory Standards Institute (CLSI) guidelines M27-A3 for yeasts and M38-A2 for molds. Compound 2 and analogs were first diluted in DMSO to obtain intermediate dilutions. These were further diluted in microtiter plates to obtain a final concentration of 2 to 0.002 μg/mL. 1 μl of DMSO was added to “No drug” control wells. The solutions were mixed on a plate shaker for 10 mins and plates incubated at 35° C. for 40 to 48 h (C. albicans, A. fumigatus) and 72 h (C. neoformans). The minimum concentration that led to 50% reduction in fungal growth as compared to the control (with the aid of a reading mirror) was determined as the minimum inhibitory concentration (MIC) for C. albicans and C. neoformans.

[3] = system: C. neoformans isolates; experiment: as above; assay type: cell-based, Cryptococcus neoformans
Source text: as §1, §2, §3

[4] = system: strains of C. neoformans and C. gattii; experiment: Activity vs Cryptococcus, summary over the strains tested; assay type: cell-based, Cryptococcus neoformans and Cryptococcus gattii; details: for MIC GEOMEAN: geometric mean over the 18 isolates of C. neoformans and C. gattii; for MIC90: panel of 18 isolates of C. neoformans and C. gattii
Source text: as §1, §2, §3

[5] = system: Cryptococcus neoformans H99; experiment: In vitro antifungal assay (Example IX), microdilution broth, MIC; assay type: cell-based; details: minimum inhibitory concentration (≥50% inhibition), 35° C., 72 h, RPMI1640
How it was run: (§4)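 CLSI broth microdilution in RPMI1640 with 2.5×10^3 cells/mL and final compound concentrations of 2-0.0019 μg/mL (1% DMSO). C. albicans 90028 plates were incubated at 35° C. for 40-48 h and C. neoformans H99 for 72 h. MIC was read as minimum inhibitory concentration, verified at 600 nm.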

[6] = system: Candida albicans 90028; experiment: as above; assay type: cell-based; details: minimum inhibitory concentration (≥50% inhibition), 35° C., 40-48 h, RPMI1640
How it was run: as §4

[7] = system: Cryptococcus gattii; experiment: as above; assay type: cell-based; details: minimum inhibitory concentration (≥50% inhibition), 35° C., 72 h (Cryptococcus), RPMI1640
How it was run: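 Broth microdilution in RPMI1640 with 2.5×10^3 cells/mL inoculum; final compound concentrations were 2–0.0019 μg/mL, with 1% DMSO. Cryptococcus plates were incubated at 35 °C for 72 h, and growth was read at 600 nm to give the MIC.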

[8] = system: Rhizomucor pusillus 46342; experiment: In vitro antifungal assay (Example IX), microdilution broth, MEC; assay type: cell-based; details: minimum effective concentration (shortening of hyphae), 35° C., 40-48 h, RPMI1640
How it was run: (§5)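 Spore suspensions of A. fumigatus and R. pusillus adjusted to 1-2×10^4 spores/mL in RPMI1640 and exposed to compound dilutions prepared in DMSO, by broth microdilution. MEC taken as the lowest concentration shortening hyphae versus DMSO control wells, read as for echinocandins.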

[9] = system: Aspergillus fumigatus MYA3626; experiment: as above; assay type: cell-based; details: minimum effective concentration (shortening of hyphae), 35° C., 40-48 h, RPMI1640
How it was run: as §5

[10] = in the presence of ABT, 20 mg/kg Ex. 172 prodrug, 60 mg/kg Ex. 173 prodrug, 80 mg/kg Compound 1
[11] = C. gattii RSA-MW-3615 (FLC-resistant)
[12] = C. neoformans DUMC 118.00 (FLC-resistant)
[13] = C. neoformans DUMC 158.03 (FLC-resistant)

MIC [5] | MIC [6] | MIC [7] | SMILES | MIC ([2]; C. gattii MYA-4093) | MIC ([2]; C. gattii MYA-4094) | MIC ([2]; C. gattii MYA-4560) | MIC ([2]; C. gattii MYA-4561) | MIC ([2]; C. gattii MYA-4562) | MIC ([2]; C. gattii MYA-4563) | MIC ([2]; C. gattii MYA-4877) | MIC [2, 11] | MIC ([3]; C. neoformans 14116) | MIC ([3]; C. neoformans 76484) | MIC [3, 12] | MIC [3, 13] | MIC ([3]; C. neoformans H99) | MIC ([3]; C. neoformans MYA-4564) | MIC ([3]; C. neoformans MYA-4565) | minimal effective concentration [8] | minimal effective concentration [9] | further results
– | – | – | Nc1c(-c2cc(Cc3ccc(OCc4ccccc4)cc3)no2)ccc[n+]1COP(=O)([O-])O | – | – | – | – | – | – | – | – | – | – | – | – | – | – | – | – | – | log10 CFU/g brain reductions at doses of similar AUC (approximately 80 μg·h/mL) [1, 10]: 1.45 log10 CFU/g; log10 CFU/g lung reductions at doses of similar AUC (approximately 80 μg·h/mL) [1, 10]: 1.55 log10 CFU/g; reduction of CFU in brain vs untreated control ([1]; 34 mg/kg QD IP 7 days): 1.66 log10 CFU/g; reduction of CFU in lung vs untreated control ([1]; 34 mg/kg QD IP 7 days): 1.07 log10 CFU/g; reduction of CFU in brain vs untreated control ([1]; 85 mg/kg QD IP 7 days): 2.72 log10 CFU/g; reduction of CFU in lung vs untreated control ([1]; 85 mg/kg QD IP 7 days): 3.28 log10 CFU/g
– | – | – | Nc1ncccc1-c1cc(Cc2ccc(OCc3ccccc3)cc2)no1 [Example 2020] | 0.125 µg/mL (≈ 0.35 µM) | 0.25 µg/mL (≈ 0.699 µM) | 0.063 µg/mL (≈ 0.176 µM) | 0.125 µg/mL (≈ 0.35 µM) | 0.125 µg/mL (≈ 0.35 µM) | 0.125 µg/mL (≈ 0.35 µM) | 0.063 µg/mL (≈ 0.176 µM) | 0.031 µg/mL (≈ 0.0867 µM) | 0.031 µg/mL (≈ 0.0867 µM) | 0.063 µg/mL (≈ 0.176 µM) | 0.063 µg/mL (≈ 0.176 µM) | 0.25 µg/mL (≈ 0.699 µM) | 0.031 µg/mL (≈ 0.0867 µM) | 0.063 µg/mL (≈ 0.176 µM) | 0.25 µg/mL (≈ 0.699 µM) | – | – | MIC ([3]; C. neoformans MYA-4566): 0.125 µg/mL (≈ 0.35 µM); MIC ([3]; C. neoformans MYA-4567): 0.063 µg/mL (≈ 0.176 µM); MIC GEOMEAN [4]: 0.085 µg/mL (≈ 0.238 µM); MIC90 [4]: 0.25 µg/mL (≈ 0.699 µM)
– | – | – | Nc1ncccc1-c1cc(Cc2ccc(Oc3cccc(F)n3)cc2)no1 [Example 2039] | 0.016 µg/mL (≈ 0.0442 µM) | 0.016 µg/mL (≈ 0.0442 µM) | 0.008 µg/mL (≈ 0.0221 µM) | 0.016 µg/mL (≈ 0.0442 µM) | 0.016 µg/mL (≈ 0.0442 µM) | 0.016 µg/mL (≈ 0.0442 µM) | 0.008 µg/mL (≈ 0.0221 µM) | 0.004 µg/mL (≈ 0.011 µM) | 0.004 µg/mL (≈ 0.011 µM) | 0.004 µg/mL (≈ 0.011 µM) | 0.016 µg/mL (≈ 0.0442 µM) | 0.031 µg/mL (≈ 0.0855 µM) | 0.004 µg/mL (≈ 0.011 µM) | 0.004 µg/mL (≈ 0.011 µM) | 0.031 µg/mL (≈ 0.0855 µM) | – | – | MIC ([3]; C. neoformans MYA-4566): 0.008 µg/mL (≈ 0.0221 µM); MIC ([3]; C. neoformans MYA-4567): 0.016 µg/mL (≈ 0.0442 µM); MIC GEOMEAN [4]: 0.010 µg/mL (≈ 0.0276 µM); MIC90 [4]: 0.031 µg/mL (≈ 0.0855 µM)
0.01 to 0.1 µg/mL (≈ 0.0263 to 0.263 µM) | 0.01 to 0.1 µg/mL (≈ 0.0263 to 0.263 µM) | ≤ 0.01 µg/mL | Nc1ncccc1-c1cc(Cc2ccc(Oc3ncc(F)cc3F)cc2)no1 [compound 242, 3-(3-(4-((3,5-difluoropyridin-2-yl)oxy)benzyl)isoxazol-5-yl)pyridin-2-amine] | – | – | – | – | – | – | – | – | – | – | – | – | – | – | – | 0.1 to 1 µg/mL | 0.01 to 0.1 µg/mL | –
0.1 to 1 µg/mL (≈ 0.29 to 2.9 µM) | 0.1 to 1 µg/mL (≈ 0.29 to 2.9 µM) | 0.1 to 1 µg/mL (≈ 0.29 to 2.9 µM) | Nc1ncccc1-c1cc(Cc2ccc(Oc3ncccn3)cc2)no1 [compound 243, 3-(3-(4-(pyrimidin-2-yloxy)benzyl)isoxazol-5-yl)pyridin-2-amine] | – | – | – | – | – | – | – | – | – | – | – | – | – | – | – | > 1 µg/mL | 0.1 to 1 µg/mL | –
0.1 to 1 µg/mL (≈ 0.264 to 2.64 µM) | 0.1 to 1 µg/mL (≈ 0.264 to 2.64 µM) | 0.1 to 1 µg/mL (≈ 0.264 to 2.64 µM) | Nc1ncccc1-c1cc(Cc2ccc(Nc3cc(F)ccc3F)nc2)no1 [compound 244, 5-((5-(2-aminopyridin-3-yl)isoxazol-3-yl)methyl)-N-(2,5-difluorophenyl)pyridin-2-amine] | – | – | – | – | – | – | – | – | – | – | – | – | – | – | – | > 1 µg/mL | 0.1 to 1 µg/mL | –
